Patent US6881409B2, “Compositions and methods for promoting nerve regeneration” (Oregon Health and Science University, priority 1997, dated 2005)

Test system: SH-SY5Y human neuroblastoma cells
Assay: Neurite outgrowth (neuritic process length) of NGF-differentiated SH-SY5Y cells
Type: cell-based
Experimental: Cell cultures. SH-SY5Y human neuroblastoma cells were maintained in DMEM medium (GIBCO) supplemented with 10% fetal calf serum (SIGMA), 50 IU/mL penicillin, and […] streptomycin (GIBCO) at 37° C. in 7% CO^2. Cells were plated in six-well plates at 1×10^6 cells/well and treated with […] aphidicolin (SIGMA). At five days, cells were washed, treated with nerve growth factor (NGF) (Boehringer Mannheim, Indianapolis, Ind.) at 10 ng/mL (to induce process outgrowth) in the presence or absence of FK506 (1 and 10 nM) (Calbiochem-Novabiochem Int'l., La Jolla, Calif.) and/or geldanamycin (0.1, 1, and 10 nM) (Calbiochem-Novabiochem, La Jolla, Calif.). Media was changed at 96 hours and replaced with fresh media with the compounds (NGF plus FK506 and/or geldanamycin) for an additional 72 hours (total time, 168 hours). The top 50% of axonal lengths were selected for statistical analysis. All experiments were run in duplicate wells and repeated at least twice for reproducibility.
Light morphometry of neurite lengths. For analysis of process length, cells 20 fields per well) were randomly photographed at 72 and 168 hours. Neurite lengths were measured on photographic prints using a Houston Instrument HI-PAD digitizing tablet connected to an IBM XT computer with appropriate software (Bioquant IV, R&M Biometrics, Nashville, Tenn.); only those processes greater than two times the cell body length were measured. Data from identically treated wells were not different and were therefore combined. […] Histograms were compared using a Mann-Whitney U test, which makes no assumptions about the shape of the distribution.
Preparation of FK506 and geldanamycin. FK506 (mol. wt. 822) and geldanamycin (mol. wt. 561) were dissolved in DMEM medium.
In a first set of experiments, SH-SY5Y neuroblastoma cells were plated in 6-well plates with DMEM plus 15% FCS and differentiated with NGF (10 ng/ml). The effects of various concentrations of geldanamycin and FK506 on neurite growth, alone and in combination, were tested.

**Q.** Which Mean Length of Top 50% of Neuritic Processes (Table 1, FK506 10 nM + NGF 10 ng/mL, 168 hours) does the source give for `C=CC[C@@H]1/C=C(\C)C[C@H](C)C[C@H](OC)[C@H]2O[C@@](O)(C(=O)C(=O)N3CCCC[C@H]3C(=O)O[C@H](/C(C)=C/[C@@H]3CC[C@@H](O)[C@H](OC)C3)[C@H](C)[C@@H](O)CC1=O)[C@H](C)C[C@@H]2OC` [FK506] here?
**A.** 77.8 µm

**Q.** And the Mean Length of Top 50% of Neuritic Processes (Table 2, FK506 1 nM + NGF 10 ng/mL, 168 hours)?
**A.** 89.9 µm

**Q.** And the Mean Length of Top 50% of Neuritic Processes (Table 2, FK506 10 nM + NGF 10 ng/mL, 168 hours)?
**A.** 82.7 µm

**Q.** With `COC1=C2C[C@@H](C)C[C@H](OC)[C@H](O)[C@@H](C)/C=C(\C)[C@H](OC(N)=O)[C@@H](OC)/C=C\C=C(/C)C(=O)NC(=CC1=O)C2=O` [Geldanamycin, geldanamycin] as the molecule, how does the Mean Length of Top 50% of Neuritic Processes (Table 1, geldanamycin 1 nM + NGF 10 ng/mL, 168 hours) read?
**A.** 64 µm

**Q.** What about the Mean Length of Top 50% of Neuritic Processes (Table 1, geldanamycin 10 nM + NGF 10 ng/mL, 168 hours) of the same molecule?
**A.** 54.8 µm

**Q.** And the Mean Length of Top 50% of Neuritic Processes (Table 2, geldanamycin 0.1 nM + NGF 10 ng/mL, 168 hours)?
**A.** 98.1 µm

**Q.** What about the “effect on length of the processes” value (first set, geldanamycin 10 nM in the presence of NGF) of the same molecule?
**A.** no effect

**Q.** estrogen was tested. Which “effect on neurite outgrowth with FK506” value (10 nM with FK506 10 nM) did it give?
**A.** additive effect

**Q.** And the “neurite outgrowth” value (10 nM, without NGF)?
**A.** increased neurite outgrowth

B1: NGF: nerve growth factor (Boehringer Mannheim), used to induce process outgrowth (protein, UniProt P01139 122-241, looked up)
Beta-nerve growth factor: SSTHPVFHMGEFSVCDSVSVWVGDKTTATDIKGKEVTVLAEVNINNSVFRQYFFETKCRASNPVESGCRGIDSKHWNSYCTTTHTFVKALTTDEKQAAWRFIRIDTACVCVLSRKATRRG
**Q.** How did the Mean Length of Top 50% of Neuritic Processes (Table 1 (first set), NGF 10 ng/mL only, 168 hours after treatment) turn out when B1 was run?
**A.** 54 µm

**Q.** And the Mean Length of Top 50% of Neuritic Processes (Table 2 (second set), NGF 10 ng/mL only, 168 hours)?
**A.** 70.4 µm

**Q.** What about the “mean length of the processes compared to untreated cells” value (first set, NGF 10 ng/mL, 168 hours) of the same molecule?
**A.** more than doubled

**Q.** What about the “mean neuritic lengths compared to untreated control cells” value (second set, NGF-treated cells) of the same molecule?
**A.** more than double
